According to patent publication US20090148907A1, “NOVEL FRUCTOFURANOSIDASE ACTIVITY FOR OBTAINING THE PREBIOTIC OLIGOSACCHARIDE 6-KESTOSE” (CONSEJO SUPERIOR DE INVESTIGACIONES CIENTIFICAS, priority 2005, published 2009):

Assays:
Format in all cases: biochemical
[1] = target: T1, Fructofuranosidase activity of the extracellular fraction of S. occidentalis (Schwanniomyces occidentalis, UniProt P24133); assay: Fructofuranosidase activity of the extracellular fraction on different carbohydrates (glucose release, glucose oxidase-peroxidase); conditions: for Fructofuranosidase activity on substrate (in words): extracellular fraction, named sugar used as substrate; for Specific activity: extracellular fraction concentrated (30 kDa filter) and dialysed, activity on the named substrate
T1 construct: the enzyme object of the invention is extracellularly released; endogenous in cells; host or cells: Schwanniomyces occidentalis (ATCC26077 named) grown in lactose medium; the cell-free supernatant was concentrated by 30 kDa tangential filtration and dialysed
Method: (§1) The cell free fraction was obtained by centrifugation (F-0) of a culture of S. occidentalis ATCC26077 grown at 29° C. and 235 rpm. Fructofuranosidase activity was assayed in the latter, determining the glucose release on different substrates. A colorimetric assay and the standard methodology were used. The released glucose was quantified using the glucose oxidase-peroxidase coupled reaction: 0.4 ml of the solution to be determined was mixed with 0.1 ml of A:B (20:1) solution (A: 0.85 U/ml glucose oxidase, 0.40 U/ml peroxidase in sodium phosphate buffer pH 5; B: 0.6% O-dianisidine). It was incubated for 30 minutes at 37° C. and spectrophotometrically quantified at 450 nm. A standard glucose curve (0 to 100 μg/ml) was used. The fructofuranosidase activity unit is defined in μmol/ml min of glucose determined in the described conditions.
The cell free fraction, obtained by centrifugation, of a culture of S. occidentalis grown in lactose medium: 0.3% (w/v) YNB (yeast nitrogen base w/o amino acids, DIFCO), 3.5% (w/v) bactopeptone (DIFCO), 0.5% (w/v) KH2 PO4, 1% (w/v) MgSO4.7H2O, 1% (w/v) (NH4)SO4, and 2% lactose as a carbon source (R. D. Klein et al., “Purification and characterization of invertase from to novel industrial yeast, Schwanniomyces occidentalis”, Prep. Biochem, 1989, vol 19, pp. 293-319), grown until an optical density of 8.34 OD 660 nm, was concentrated using a tangential filtration system (30 kDa filter) followed by dialysis against 20 mM HCl-Tris pH 7 for 2 hours at a temperature of 4° C. and was assayed on different substrates.

[2] = target: T2, Fructofuranosidase activity of the F-3 fraction of S. occidentalis (Schwanniomyces occidentalis, UniProt P24133); assay: Fructofuranosidase (hydrolytic) activity of the purified enzyme F-3 on different substrates; conditions: for Hydrolytic activity on substrate (in words): purified enzyme F-3; for Activity specific: purified protein F-3, 1% substrate
T2 construct: the enzyme object of the invention is extracellularly released; endogenous in cells; host or cells: Schwanniomyces occidentalis culture supernatant; concentrated (F-1), then DEAE-Sephacel at pH 7 (F-2) and at pH 5 (F-3)
Method: as §1
The hydrolytic activity of the purified enzyme (F-3), following the described method, was assayed on different substrates. The maximum activity level is obtained on sucrose. Activity on lactose, leucrose, turanose or palatinose was not observed.

[3] = target: T3, fructofuranosidase of S. occidentalis (pure enzyme F-3) (Schwanniomyces occidentalis, UniProt P24133); assay: Transfructosidase (transglycosylation) activity of pure enzyme F-3 on sucrose, HPLC; conditions: for Composition of the system: final reaction time (144 h), F-3 0.5 U/ml, 50° C.
T3 construct: the enzyme object of the invention is extracellularly released; endogenous in cells; host or cells: Schwanniomyces occidentalis culture supernatant; concentrated (F-1), then DEAE-Sephacel at pH 7 (F-2) and at pH 5 (F-3)
Method: The transglycosylation activity of the pure enzyme (fraction F-3) was assayed. A reaction was prepared using a high concentration of sucrose (510 g/l) and a final enzymatic activity in the reaction mixture of approximately 0.5 U/ml. […] It is seen that the profile of the obtained products is very similar in both cases, specifically the 6-kestose/1-kestose ratio that was obtained was 3.3.
After 144 hours of reaction, 42.6 g/l of FOS were obtained. The total percentage (w/w) of fructooligosaccharides was 8.4% this value being with respect to the total weight of carbohydrates in the medium.
A high concentration solution of sucrose ([…]) in 0.2 M sodium acetate buffer pH 5.6 was prepared. The fructofuranosidase was added until a final concentration in the reaction mixture of 0.5 U/ml (one unit U is the enzymatic activity corresponding to releasing a micromole of reducing sugars per minute, using 100 g/l of sucrose as substrate, in 0.2 M sodium acetate buffer pH 5.6, at 50° C.). The reaction mixture was incubated for 144 hours at 50° C., with orbital stirring at 700 rpm. Aliquots were extracted at different times, incubated for 5 minutes at 80° C. to inactivate the enzyme, diluted 1:2 (v/v) with water centrifuged for 5 minutes at 6000 rpm in an eppendorf tube with a 0.45 μm filter and analyzed by HPLC liquid chromatography. The profile of the products formed is seen in FIG. 7. Two trisaccharides were obtained: a majority trisaccharide, identified as 6-kestose, and another minority trisaccharide, identified as 1-kestose. At the final reaction time (144 h), the composition of the system was: 12.7% fructose, 14.80/glucose. 64.1% sucrose, 2.4% 1-kestose and 5.9% 6-kestose).

[4] = target: T4, fructofuranosidase of S. occidentalis (enzymatic concentrate F-1) (Schwanniomyces occidentalis, UniProt P24133); assay: Transfructosidase (transglycosylation) activity of enzymatic concentrate F-1 on sucrose, HPLC; conditions: for Composition of the system: maximum point of FOS production (4 h), F-1 5 U/ml; for Composition of the system / Composition of the reaction mixture: 50° C.; for Composition of the reaction mixture: F1 5 U/ml, pH 5.6
T4 construct: the enzyme object of the invention is extracellularly released; endogenous in cells; host or cells: Schwanniomyces occidentalis (ATCC26077 named) grown in lactose medium; the cell-free supernatant was concentrated by 30 kDa tangential filtration and dialysed
Method: The transglycosylation activity of the enzymatic concentrate obtained by ultrafiltration (F-1) was assayed. A reaction was prepared using a high concentration of sucrose (510 g/l), to favor the formation of glycosidic bonds in detriment of the hydrolysis reaction, and a final activity enzymatic in the reaction mixture of approximately 5 U/ml. […] On one hand, fructose (peak 1) and glucose (peak 2) are formed as hydrolytic products. On the other hand, two trisaccharides are obtained: a majority trisaccharide (peak 4), identified as 6-kestose [β-D-Fru-(2→6)-β-D-Fru-(2→1)-α-D-Glu] and another minority trisaccharide (peak 5), identified as 1-kestose. [β-D-Fru-(2→1)-β-D-Fru-(2→1)-α-D-Glu]. The sucrose that has not reacted corresponds to peak 3.
It is observed that the 6-kestose/1-kestose molar ratio reaches a maximum value of 3.3 between 4 and 6 hours of reaction.
A high concentration solution of sucrose (510 g/l) in 0.2 M sodium acetate buffer pH 5.6 was prepared. The fructofuranosidase was added until a final concentration in the reaction mixture of 5 U/ml (one unit U is the enzymatic activity corresponding to release of a micromole of reducing sugars per minute, using 100 g/l of sucrose as substrate, in 0.2 M sodium acetate buffer pH 5.6, at 50° C.). The reaction mixture was incubated for 24 hours at 50° C., with orbital stirring at 700 rpm. Aliquots were extracted at different times, incubated for 5 minutes at 80° C. to inactivate the enzyme, diluted 1:2 (v/v) with water, centrifuged for 5 minutes at 6000 rpm in an eppendorf tube with a 0.45 μm filter and analyzed by HPLC liquid chromatography. The profile of the products formed is seen in FIG. 5. It is observed that the fructofuranosidase of S. occidentalis has transfer activity (transfructosylation). Two trisaccharides are obtained: one majority trisaccharide, 6-kestose [3-D-Fru-(2→6)-β-D-Fru-(2→1)-α-D-Glu]and another minority trisaccharide, identified as 1-kestose [β-D-Fru-(2→1)-β-D-Fru-(2→1)-α-D-Glu]. In the maximum point of FOS production (4 h), the composition of the system was: 8.7% fructose, 11.9% glucose, 70.8% sucrose, 2.0% 1-kestose and 6.6% 6-kestose.

T2 sequence (P24133 other isoform, or with tags, fused parts or gaps with the stated changes): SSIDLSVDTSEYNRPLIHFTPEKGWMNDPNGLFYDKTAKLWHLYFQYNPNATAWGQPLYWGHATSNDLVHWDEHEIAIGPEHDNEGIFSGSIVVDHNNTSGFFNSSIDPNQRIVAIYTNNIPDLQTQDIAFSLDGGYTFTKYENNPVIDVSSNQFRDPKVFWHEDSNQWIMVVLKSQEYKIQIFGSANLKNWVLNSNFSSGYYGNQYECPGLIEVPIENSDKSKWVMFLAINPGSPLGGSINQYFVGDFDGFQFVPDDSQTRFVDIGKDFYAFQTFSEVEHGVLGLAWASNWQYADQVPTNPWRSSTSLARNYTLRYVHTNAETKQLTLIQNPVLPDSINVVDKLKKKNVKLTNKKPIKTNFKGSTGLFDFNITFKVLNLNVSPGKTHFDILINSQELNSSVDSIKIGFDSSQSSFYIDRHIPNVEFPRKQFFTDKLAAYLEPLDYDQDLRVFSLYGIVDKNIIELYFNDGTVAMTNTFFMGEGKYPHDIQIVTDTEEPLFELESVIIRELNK
T4 sequence (P24133 other isoform, or with tags, fused parts or gaps with the stated changes): as above
T3 sequence (P24133 other isoform, or with tags, fused parts or gaps with the stated changes): as above
T1 sequence (P24133 other isoform, or with tags, fused parts or gaps with the stated changes): as above

SMILES	Fructofuranosidase activity on substrate (in words) [1]	Hydrolytic activity on substrate (in words) [2]	Specific activity [1] [mU/μg]	Activity specific [2] [mU/μg]	Composition of the system [3] [%]	Composition of the system [4] [%]	Composition of the reaction mixture ([4]; reaction time 1 h) [grams/liter]	Composition of the reaction mixture ([4]; reaction time 1.5 h) [grams/liter]	Composition of the reaction mixture ([4]; reaction time 4 h) [grams/liter]	Composition of the reaction mixture ([4]; reaction time 6 h) [grams/liter]	Composition of the reaction mixture ([4]; reaction time 24 h) [grams/liter]	6-kestose/1-kestose ratio ([3]; pure enzyme F-3 0.5 U/ml, 144 hours)	6-kestose/1-kestose molar ratio, maximum value ([4]; between 4 and 6 hours of reaction, F-1)
OC[C@H]1O[C@H](O[C@@H]2COC(O)(CO)[C@@H](O)[C@@H]2O)[C@H](O)[C@@H](O)[C@@H]1O (stereo partly shown) [leucrose]	No activity was detected	not observed	–	–	–	–	–	–	–	–	–	–	–
OC[C@H]1O[C@H](OC[C@H]2O[C@H](O[C@]3(CO)O[C@H](CO)[C@@H](O)[C@@H]3O)[C@H](O)[C@@H](O)[C@@H]2O)[C@H](O)[C@@H](O)[C@H]1O [raffinose]	–	–	0.2	7.5	–	–	–	–	–	–	–	–	–
OC[C@H]1O[C@@](CO)(OC[C@@]2(OC[C@@]3(O[C@H]4O[C@H](CO)[C@@H](O)[C@H](O)[C@H]4O)O[C@H](CO)[C@@H](O)[C@@H]3O)O[C@H](CO)[C@@H](O)[C@@H]2O)[C@@H](O)[C@@H]1O [nystose]	–	–	0.6	6.2	–	–	–	–	–	–	–	–	–
O=C(CO)[C@@H](O[C@H]1O[C@H](CO)[C@@H](O)[C@H](O)[C@H]1O)[C@H](O)[C@H](O)CO [turanose]	No activity was detected	not observed	–	–	–	–	–	–	–	–	–	–	–
O=C(CO)[C@@H](O)[C@H](O)[C@H](O)CO [fructose]	–	–	–	–	12.7	8.7	5.3	16.8	44.3	54.8	113.6	–	–
OC[C@H]1O[C@@H](O[C@H]2[C@H](O)[C@@H](O)C(O)O[C@@H]2CO)[C@H](O)[C@@H](O)[C@H]1O (stereo partly shown) [lactose]	No activity was detected	not observed	–	–	–	–	–	–	–	–	–	–	–
OC[C@H]1O[C@@](CO)(OC[C@H]2O[C@@](CO)(O[C@H]3O[C@H](CO)[C@@H](O)[C@H](O)[C@H]3O)[C@@H](O)[C@@H]2O)[C@@H](O)[C@@H]1O [6-kestose, β-D-Fru-(2→6)-β-D-Fru-(2→1)-α-D-Glu]	–	–	–	–	5.9	6.6	5.4	12.7	33.5	31.0	10.6	3.3	3.3
OC[C@H]1O[C@H](OC[C@H]2OC(O)(CO)[C@@H](O)[C@@H]2O)[C@H](O)[C@@H](O)[C@@H]1O (stereo partly shown) [palatinose]	No activity was detected	not observed	–	–	–	–	–	–	–	–	–	–	–
OC[C@H]1O[C@@](CO)(OC[C@@]2(O[C@H]3O[C@H](CO)[C@@H](O)[C@H](O)[C@H]3O)O[C@H](CO)[C@@H](O)[C@@H]2O)[C@@H](O)[C@@H]1O [1-kestose, β-D-Fru-(2→1)-β-D-Fru-(2→1)-α-D-Glu]	–	–	2.2	6.3	2.4	2.0	2.8	6.4	10.1	9.6	4.5	–	–
OC[C@H]1O[C@@](CO)(O[C@H]2O[C@H](CO)[C@@H](O)[C@H](O)[C@H]2O)[C@@H](O)[C@@H]1O [sucrose, α-D-Glu-(1→2)-β-D-Fru]	–	–	24	109	64.1	70.8	487.3	453.8	361.6	343.7	240.9	–	–
